Test: Screening of different concentrations of the chelating agent GLDA (peracetic acid concentration over storage)
Assay type: physicochemical

Question: For `O=C([O-])CC[C@@H](C(=O)[O-])N(CC(=O)[O-])CC(=O)[O-].[Na+].[Na+].[Na+].[Na+]` [GLDA, N,N-bis(carboxymethyl)-L-glutamic acid tetrasodium salt], which “peracetic acid concentration of the aqueous disinfectant solution” value (“peracetic acid concentration” below) (0.05 wt.-% GLDA in component (B), day 0, 23° C.) is on record?
Answer: Its value is 2314 ppm.

Question: What about the “peracetic acid concentration” value (0.05 wt.-% GLDA in component (B), day 1, 23° C.) of the same compound?
Answer: The value was 2220 ppm.

Question: What about the “peracetic acid concentration” value (0.05 wt.-% GLDA in component (B), day 4, 23° C.) of the same compound?
Answer: The value was 1847 ppm.

Question: And the “peracetic acid concentration” value (0.05 wt.-% GLDA in component (B), day 6, 23° C.)?
Answer: Its value is 1753 ppm.

Question: What about the “peracetic acid concentration” value (0.05 wt.-% GLDA in component (B), day 7, 23° C.) of the same compound?
Answer: The value was 1653 ppm.

Question: What about the “peracetic acid concentration” value (0.05 wt.-% GLDA in component (B), day 8, 23° C.) of the same compound?
Answer: Its value is 1563 ppm.

Question: And the “peracetic acid concentration” value (0.05 wt.-% GLDA in component (B), day 9, 23° C.)?
Answer: The value was 1466 ppm.

Question: And the “peracetic acid concentration” value (0.05 wt.-% GLDA in component (B), day 15, 23° C.)?
Answer: The value was 829 ppm.

Question: And the “peracetic acid concentration” value (0.1 wt.-% GLDA in component (B), day 0, 23° C.)?
Answer: The value was 2346 ppm.

Question: What about the “peracetic acid concentration” value (0.1 wt.-% GLDA in component (B), day 1, 23° C.) of the same compound?
Answer: Its value is 2202 ppm.

Question: And the “peracetic acid concentration” value (0.1 wt.-% GLDA in component (B), day 4, 23° C.)?
Answer: Its value is 1856 ppm.

Question: And the “peracetic acid concentration” value (0.1 wt.-% GLDA in component (B), day 6, 23° C.)?
Answer: The value was 1793 ppm.

Question: And the “peracetic acid concentration” value (0.1 wt.-% GLDA in component (B), day 7, 23° C.)?
Answer: Its value is 1682 ppm.

Question: And the “peracetic acid concentration” value (0.1 wt.-% GLDA in component (B), day 8, 23° C.)?
Answer: The value was 1636 ppm.

Question: What about the “peracetic acid concentration” value (0.1 wt.-% GLDA in component (B), day 9, 23° C.) of the same compound?
Answer: Its value is 1566 ppm.

Question: What about the “peracetic acid concentration” value (0.1 wt.-% GLDA in component (B), day 15, 23° C.) of the same compound?
Answer: Its value is 1075 ppm.

Question: What about the “stabilisation of peracetic acid, comparison of GLDA concentrations” value (0.1 wt.-% GLDA in the stabilizer component (B)) of the same compound?
Answer: The value was “best stabilisation”.

Question: What about the “peracetic acid concentration” value (0.5 wt.-% GLDA in component (B), day 0, 23° C.) of the same compound?
Answer: Its value is 2408 ppm.

Question: What about the “peracetic acid concentration” value (0.5 wt.-% GLDA in component (B), day 1, 23° C.) of the same compound?
Answer: Its value is 2113 ppm.

Question: What about the “peracetic acid concentration” value (0.5 wt.-% GLDA in component (B), day 4, 23° C.) of the same compound?
Answer: The value was 1821 ppm.

Question: What about the “peracetic acid concentration” value (0.5 wt.-% GLDA in component (B), day 6, 23° C.) of the same compound?
Answer: Its value is 1718 ppm.

Question: What about the “peracetic acid concentration” value (0.5 wt.-% GLDA in component (B), day 7, 23° C.) of the same compound?
Answer: The value was 1682 ppm.

Question: What about the “peracetic acid concentration” value (0.5 wt.-% GLDA in component (B), day 8, 23° C.) of the same compound?
Answer: Its value is 1625 ppm.

Question: What about the “peracetic acid concentration” value (0.5 wt.-% GLDA in component (B), day 9, 23° C.) of the same compound?
Answer: Its value is 1512 ppm.

Question: And the “peracetic acid concentration” value (0.5 wt.-% GLDA in component (B), day 15, 23° C.)?
Answer: Its value is 1016 ppm.

Question: What about the “shelf life of the aqueous disinfectant use solution” value (component (B) comprised 0.05 wt.-%, 0.1 wt.-% or 0.5 wt.-% GLDA) of the same compound?
Answer: The value was “about 14 days”.

Reference: US11140896B2, “Two components disinfecting composition containing peracetic acid and chelating agent” (ECOLAB USA INC., priority 2014, dated 2021)
